One may read the Ki as a measure of affinity in units of concentration, obtained from inhibition or displacement.

This is an account of results in US9815796B2 (Merck Sharp & Dohme Corp., priority 2013, dated 2017).

Like-named read-outs stand apart in the source and are kept apart here.

In one experiment the target is human PDE2A1 (Homo sapiens (Human), UniProt O00408). As to the kind of experiment: IMAP FP PDE selectivity panel, human PDE2A1. Format: biochemical. In outline: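 GST-tagged human PDE2A1 expressed in insect cells, run at room temperature for 60 min with 50 nM FAM-cAMP containing 1000 nM cGMP, pH 7.2 Tris/MgCl2 buffer. IMAP fluorescence polarization read after binding step.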

For a further experiment, the target named is Rhesus PDE2A3 (Macaca mulatta, UniProt B3VTJ2). As to the kind of experiment: PDE2 fluorescence polarization (IMAP FP) inhibition assay, rhesus enzyme. Format: biochemical, rhesus macaque. An outline of the steps: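 Rhesus PDE2A3 came from lysate of transiently transfected AD293 cells, diluted to give 20% substrate conversion. Substrate was 50 nM FAM-cAMP with 1 uM cGMP activator in Tris pH 7.2/MgCl2 buffer, run 60 min at room temperature over 10-point 3-fold dilutions in 1% DMSO. Read-out was IMAP fluorescence polarization (mP) after ≥1 h binding.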
On the technique in general: Polarisation of emitted light reports the rotation of a fluorescent probe.

Where [1] appears, read: Human PDE2, Lab A, read-out: Human PDE2 Ki (nM) - Lab A.
The mark [2] stands for this setting: Rhesus PDE2, Lab A, read-out: Rhesus PDE2 Ki (nM) - Lab A.
Setting [3] is: Human PDE2, Lab B, read-out: Human PDE2 Ki (nM) - Lab B.
Setting [4] is: Rhesus PDE2, Lab B, read-out: Rhesus PDE2 Ki (nM) - Lab B.

human PDE2A1, sequence (O00408 other isoform, or with tags, fused parts or gaps): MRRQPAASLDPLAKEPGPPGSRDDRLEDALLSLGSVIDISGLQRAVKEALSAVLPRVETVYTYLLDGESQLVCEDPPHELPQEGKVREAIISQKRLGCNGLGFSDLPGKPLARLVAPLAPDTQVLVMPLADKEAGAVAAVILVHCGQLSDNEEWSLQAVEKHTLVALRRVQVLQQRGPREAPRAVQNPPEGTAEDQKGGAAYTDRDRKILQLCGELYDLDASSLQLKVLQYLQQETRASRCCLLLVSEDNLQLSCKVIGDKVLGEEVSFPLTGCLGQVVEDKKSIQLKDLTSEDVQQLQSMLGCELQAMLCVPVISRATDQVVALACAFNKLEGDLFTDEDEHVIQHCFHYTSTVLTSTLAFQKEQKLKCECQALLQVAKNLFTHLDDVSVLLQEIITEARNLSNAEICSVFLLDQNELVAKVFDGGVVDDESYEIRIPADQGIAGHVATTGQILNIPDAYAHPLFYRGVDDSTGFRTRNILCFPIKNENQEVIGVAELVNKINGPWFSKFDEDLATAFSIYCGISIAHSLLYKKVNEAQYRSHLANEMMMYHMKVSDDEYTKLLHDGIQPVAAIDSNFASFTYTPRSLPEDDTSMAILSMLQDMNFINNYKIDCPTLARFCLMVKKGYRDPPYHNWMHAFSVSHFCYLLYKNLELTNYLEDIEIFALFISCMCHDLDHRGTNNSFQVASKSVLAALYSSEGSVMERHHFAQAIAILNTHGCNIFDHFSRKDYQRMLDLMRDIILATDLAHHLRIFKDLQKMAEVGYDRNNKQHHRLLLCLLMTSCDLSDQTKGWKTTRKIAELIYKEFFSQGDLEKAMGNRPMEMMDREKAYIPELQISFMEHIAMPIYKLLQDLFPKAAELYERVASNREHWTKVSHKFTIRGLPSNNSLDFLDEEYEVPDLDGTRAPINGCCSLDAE
Rhesus PDE2A3, sequence (B3VTJ2 1-941): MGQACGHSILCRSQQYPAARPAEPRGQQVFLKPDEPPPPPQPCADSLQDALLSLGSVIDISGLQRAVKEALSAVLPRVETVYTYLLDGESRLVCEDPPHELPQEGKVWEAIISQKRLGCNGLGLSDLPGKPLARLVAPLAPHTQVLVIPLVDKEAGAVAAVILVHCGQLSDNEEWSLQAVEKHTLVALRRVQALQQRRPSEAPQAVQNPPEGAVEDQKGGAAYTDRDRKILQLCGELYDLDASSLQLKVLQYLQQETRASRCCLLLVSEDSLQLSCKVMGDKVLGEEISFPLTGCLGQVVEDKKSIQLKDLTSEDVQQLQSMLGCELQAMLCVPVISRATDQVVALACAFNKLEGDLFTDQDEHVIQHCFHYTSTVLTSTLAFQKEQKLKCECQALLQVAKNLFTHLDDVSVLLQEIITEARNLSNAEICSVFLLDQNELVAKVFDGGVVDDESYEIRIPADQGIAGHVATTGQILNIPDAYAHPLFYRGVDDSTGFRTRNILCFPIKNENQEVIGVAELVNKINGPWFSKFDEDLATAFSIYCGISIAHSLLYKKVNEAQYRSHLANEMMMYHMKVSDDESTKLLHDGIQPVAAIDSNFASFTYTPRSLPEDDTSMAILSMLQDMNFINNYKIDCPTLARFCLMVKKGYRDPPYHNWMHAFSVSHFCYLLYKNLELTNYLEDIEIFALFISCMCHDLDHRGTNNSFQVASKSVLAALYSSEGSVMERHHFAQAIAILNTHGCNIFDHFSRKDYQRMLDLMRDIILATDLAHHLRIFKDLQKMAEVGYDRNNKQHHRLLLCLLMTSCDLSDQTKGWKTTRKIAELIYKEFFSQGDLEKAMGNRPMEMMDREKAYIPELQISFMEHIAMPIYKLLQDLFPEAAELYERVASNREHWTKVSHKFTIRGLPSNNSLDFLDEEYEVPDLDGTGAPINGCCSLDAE

`Cc1nc(C(=O)NC2(c3ccc(SC(F)(F)F)cc3)CC2)cc(=O)[nH]1` [Example 35, 2-Methyl-6-oxo-N-(1-(4-((trifluoromethyl)thio)phenyl)cyclopropyl)-1,6-dihydroy primidine-4-carboxamide]: the results for the Ki at human PDE2A1 (setting [1]) and on Rhesus PDE2A3 (setting [2]) were 15 nM and 19 nM, respectively.

In the case of `O=C(N[C@@H](c1ccc(SC(F)(F)F)c(F)c1)C1CC1)c1cc(=O)[nH]c(C2CC2)n1` [Example 434], the Ki on human PDE2A1 (setting [3]) stood at 7.9 nM; at Rhesus PDE2A3 (setting [4]) it was 6.7 nM.

With `COCc1nc(C(=O)N[C@H](C)c2ccc(OC(F)(F)F)c(F)c2)cc(=O)[nH]1` [Example 126, N-{(1R)-1-[3-fluoro-4-(trifluoromethoxy)phenyl]-ethyl}-2-(methoxymethyl)-6-oxo-1,6-dihydropyrimidine-4-carboxamide], the Ki on human PDE2A1 (setting [1]) was approximately 11 nM; on human PDE2A1 (setting [3]), 64 nM; at Rhesus PDE2A3 (setting [2]), 48 nM; at Rhesus PDE2A3 (setting [4]) it was 61 nM.

Consider `C[C@@H](NC(=O)c1nc[nH]c(=O)c1C1CCC1)c1ccc(C(F)(F)F)cc1` [Example 334, (R)-5-cyclobutyl-6-oxo-N-(1-(4-(trifluoromethyl)phenyl)ethyl)-1,6-dihydropyrimidine-4-carboxamide], for which the Ki turned out to be 2370 nM at human PDE2A1 (setting [1]) and 2830 nM on Rhesus PDE2A3 (setting [2]).

Regarding `C[C@@H](NC(=O)c1cc(=O)[nH]c(C2CC2)n1)c1ccc(-c2ccccc2)cc1` [Example 144, N-[(1R)-1-biphenyl-4-ylethyl]-2-cyclopropyl-6-oxo-1,6-dihydropyrimidine-4-carboxamide], the Ki on human PDE2A1 (setting [1]) is 6 nM; on Rhesus PDE2A3 (setting [2]) it was 16 nM.

In the case of `CC(C)(NC(=O)c1cc(=O)[nH]c(C2CC2)n1)c1ccc(OC(F)(F)F)cc1` [Example 295, 2-cyclopropyl-N-{1-methyl-1-[4-(trifluoromethoxy)phenyl]ethyl}-6-oxo-1,6-dihydropyrimidine-4-carboxamide], the Ki stood at 77 nM on human PDE2A1 (setting [1]) and 127 nM on Rhesus PDE2A3 (setting [2]).

Regarding `O=C(NC(CO)c1ccc(C(F)(F)F)cc1)c1cc(=O)[nH]c(-c2ccccc2)n1` (centres unmarked) [Example 185, N-{2-hydroxy-1-[4-(trifluoromethyl)phenyl]ethyl}-6-oxo-2-phenyl-1,6-dihydropyrimidine-4-carboxamide], the Ki at human PDE2A1 (setting [1]) stood at 9.7 nM; at Rhesus PDE2A3 (setting [2]), 13 nM.

For the compound `COc1ccc(Cc2nc(C(=O)N[C@@H](c3ccc(S(F)(F)(F)(F)F)cc3)C3CC3)cc(=O)[nH]2)cc1F` [Example 510, N-{(R)-cyclopropyl[4-(pentafluoro-λ^6-sulfanyl)phenyl]methyl}-2-(3-fluoro-4-methoxybenzyl)-6-oxo-1,6-dihydropyrimidine-4-carboxamide], the values for the Ki at human PDE2A1 (setting [3]) and on Rhesus PDE2A3 (setting [4]) were 2.8 nM and 3.3 nM, respectively.

On to `Cc1nc(C(=O)NC(C)c2ccc(C(C)C)cc2)cc(=O)[nH]1` (single isomer, unassigned) [Example 305, (R)- or (S)-2-methyl-N-{1-[4-(1-methylethyl)phenyl]ethyl}-6-oxo-1,6-dihydropyrimidine-4-carboxamide], for which the Ki is 20 nM at human PDE2A1 (setting [1]) and 26 nM on Rhesus PDE2A3 (setting [2]).

For `O=C(N[C@@H](c1ccc(S(F)(F)(F)(F)F)cc1)C1CC1)c1cc(=O)[nH]c(-c2ccccc2)n1` [Example 404, N-{(R)-cyclopropyl[4-(pentafluoro-λ^6-sulfanyl)phenyl]methyl}-6-oxo-2-phenyl-1,6-dihydropyrimidine-4-carboxamide], the values for the Ki at human PDE2A1 (setting [3]) and at Rhesus PDE2A3 (setting [4]) were 6.5 nM and 9.5 nM, respectively.

On to `Cc1nc(C(=O)N[C@H](C)c2cc(F)c(C(F)(F)F)c(F)c2)cc(=O)[nH]1` [Example 26, N-{(1R)-[3,5-difluoro-4-(trifluoromethyl)phenyl]ethyl}-2-methyl-6-oxo-1,6-dihydropyrimidine-4-carboxamide], for which the Ki on human PDE2A1 (setting [1]) was found to be 104 nM; at Rhesus PDE2A3 (setting [2]), 231 nM.

As to `C[C@@H](NC(=O)c1cc(=O)[nH]c(-c2cccc(F)c2)n1)c1ccc(C(F)(F)F)cc1` [Example 138, 2-(3-fluorophenyl)-6-oxo-N-{(1R)-1-[4-(trifluoromethyl)phenyl]ethyl}-1,6-dihydropyrimidine-4-carboxamide], the Ki is 69 nM at human PDE2A1 (setting [1]) and 76 nM at Rhesus PDE2A3 (setting [2]).

As to `Cc1nc(C(=O)NC(C)c2ccc(-c3ccccc3)cc2)cc(=O)[nH]1` (single isomer, unassigned) [Example 307, (R)- or (S)-N-(1-biphenyl-4-ylethyl)-2-methyl-6-oxo-1,6-dihydropyrimidine-4-carboxamide], the Ki on human PDE2A1 (setting [1]) came to 16 nM; at Rhesus PDE2A3 (setting [2]), 17 nM.

For `C[C@@H](NC(=O)c1cc(=O)[nH]c(-c2ccccc2)n1)c1ccc(OC(F)(F)F)cc1F` [Example 152], the values for the Ki on human PDE2A1 (setting [1]) and on Rhesus PDE2A3 (setting [2]) were 13 nM and 16 nM, respectively.

Regarding `O=C(NCc1ccc(-c2ccccc2)cc1)c1cc(=O)[nH]c(-c2ccccc2)n1` [Example 372, N-(biphenyl-4-ylmethyl)-6-oxo-2-phenyl-1,6-dihydropyrimidine-4-carboxamide], the Ki was approximately 661 nM on human PDE2A1 (setting [3]) and approximately 149 nM on Rhesus PDE2A3 (setting [2]).

For the compound `Cc1nc(C(=O)N[C@@H](c2ccc(C3CC3)c(F)c2)C(C)(C)C)cc(=O)[nH]1` [Example 428, N-[(1R)-1-(4-cyclopropyl-3-fluorophenyl)-2,2-dimethylpropyl]-2-methyl-6-oxo-1,6-dihydropyrimidine-4-carboxamide], the results for the Ki on human PDE2A1 (setting [3]) and at Rhesus PDE2A3 (setting [4]) were 1.8 nM and 1.9 nM, respectively.

Regarding `CC(C)(NC(=O)c1cc(=O)[nH]c(-c2ncccn2)n1)c1ccc(C(F)(F)F)cc1` [Example 288, N-{1-methyl-1-[4-(trifluoromethyl)phenyl]ethyl}-6-oxo-1,6-dihydro-2,2′-bipyrimidine-4-carboxamide], the Ki came to 123 nM at human PDE2A1 (setting [1]) and 152 nM at Rhesus PDE2A3 (setting [2]).

In the case of `COc1cc(C(C)NC(=O)c2cc(=O)[nH]c(-c3ccccc3)n2)cc(OC)c1OC` (centres unmarked) [Example 351, 6-oxo-2-phenyl-N-[1-(3,4,5-trimethoxyphenyl)ethyl]-1,6-dihydropyrimidine-4-carboxamide], the Ki on human PDE2A1 (setting [3]) stood at 224 nM; at Rhesus PDE2A3 (setting [2]) it was 124 nM; at Rhesus PDE2A3 (setting [4]), 217 nM.

With `CSCc1nc(C(=O)N[C@H](C)c2ccc(C(F)(F)F)cc2)cc(=O)[nH]1` [Example 36, 2-[(methylsulfanyl)methyl]-6-oxo-N-{(1R)-1-[4-(trifluoromethyl)phenyl]ethyl}-1,6-dihydropyrimidine-4-carboxamide], the Ki on human PDE2A1 (setting [1]) was 116 nM; at Rhesus PDE2A3 (setting [2]) it was 163 nM.

In the case of `CC(NC(=O)c1cc(=O)[nH]c(-c2ccccc2)n1)c1ccc(-n2cccn2)cc1` (centres unmarked) [Example 350, 6-oxo-2-phenyl-N-{1-[4-(1H-pyrazol-1-yl)phenyl]ethyl}-1,6-dihydropyrimidine-4-carboxamide], the values for the Ki at human PDE2A1 (setting [3]) and at Rhesus PDE2A3 (setting [2]) were 39 nM and 21 nM, respectively.

In the case of `COc1cc(OC(F)(F)F)ccc1C(C)NC(=O)c1cc(=O)[nH]c(-c2ccccc2)n1` (centres unmarked) [Example 387, N-{1-[2-methoxy-4-(trifluoromethoxy)phenyl]ethyl}-6-oxo-2-phenyl-1,6-dihydropyrimidine-4-carboxamide], the Ki is 8.1 nM on human PDE2A1 (setting [3]) and 9.6 nM on Rhesus PDE2A3 (setting [4]).

For the compound `CC(C)[C@@H](NC(=O)c1cc(=O)[nH]c(C2CC2)n1)c1ccc(S(F)(F)(F)(F)F)cc1` [Example 247, 2-cyclopropyl-N-{(1R)-2-methyl-1-[4-(pentafluoro-λ^6-sulfanyl)phenyl]propyl}-6-oxo-1,6-dihydropyrimidine-4-carboxamide], the results for the Ki at human PDE2A1 (setting [3]), at Rhesus PDE2A3 (setting [2]) and at Rhesus PDE2A3 (setting [4]) were 2.7 nM, 1.7 nM and 2.5 nM, respectively.

For the compound `COc1ccc(Cc2nc(C(=O)N[C@@H](c3ccc(OC(F)(F)F)c(F)c3)C(C)(C)C)cc(=O)[nH]2)cc1F` [Example 506, 2-(3-fluoro-4-methoxybenzyl)-N-{(1R)-1-[3-fluoro-4-(trifluoromethoxy)phenyl]-2,2-dimethylpropyl}-6-oxo-1,6-dihydropyrimidine-4-carboxamide], the values for the Ki on human PDE2A1 (setting [3]) and on Rhesus PDE2A3 (setting [4]) were 0.8 nM and 0.92 nM, respectively.

On to `CC(C)[C@@H](NC(=O)c1cc(=O)[nH]c(-c2ccccc2)n1)c1ccc(OC(F)(F)F)c(F)c1` [Example 127, N-{(1R)-1-[3-fluoro-4-(trifluoromethoxy)phenyl]-2-methylpropyl}-6-oxo-2-phenyl-1,6-dihydropyrimidine-4-carboxamide], for which the Ki is 2.2 nM at human PDE2A1 (setting [1]), 3.9 nM at human PDE2A1 (setting [3]), 3.6 nM at Rhesus PDE2A3 (setting [2]) and 4.7 nM at Rhesus PDE2A3 (setting [4]).

Take `Cc1nc(C(=O)N[C@H](C)c2ccc(C(F)(F)F)cc2F)cc(=O)[nH]1` [Example 19, N-{(1R)-1-[2-fluoro-4-(trifluoromethyl)phenyl]ethyl}-2-methyl-6-oxo-1,6-dihydropyrimidine-4-carboxamide]: the results for the Ki at human PDE2A1 (setting [1]) and on Rhesus PDE2A3 (setting [2]) were 81 nM and 96 nM, respectively.

In the case of `CCc1ccc(C(C)NC(=O)c2cc(=O)[nH]c(C)n2)cc1` (centres unmarked) [Example 268, N-[1-(4-ethylphenyl)ethyl]-2-methyl-6-oxo-1,6-dihydropyrimidine-4-carboxamide], the Ki at human PDE2A1 (setting [1]) is 83 nM; at Rhesus PDE2A3 (setting [2]), 146 nM.

For `COc1ccc(Cc2nc(C(=O)NC3(c4ccc(C(F)(F)F)cc4)CC3)cc(=O)[nH]2)cc1OC` [Example 3, 2-(3,4-dimethoxybenzyl)-6-oxo-N-{1-[4-(trifluoromethyl)phenyl]-cyclopropyl}-1,6-dihydropyrimidine-4-carboxamide], the results for the Ki at human PDE2A1 (setting [1]) and at Rhesus PDE2A3 (setting [2]) were 0.45 nM and 0.54 nM, respectively.

With `CC(C)(NC(=O)c1cc(=O)[nH]c(C2CC2)n1)c1ccc(S(F)(F)(F)(F)F)cc1` [Example 680, 2-cyclopropyl-N-{1-methyl-1-[4-(pentafluoro-λ^6-sulfanyl)phenyl]ethyl}-6-oxo-1,6-dihydropyrimidine-4-carboxamide], the Ki on human PDE2A1 (setting [3]) turned out to be 87 nM; at Rhesus PDE2A3 (setting [4]), 80 nM.
